“Also recorded” adds a separate entry of the source.
Assays:
[1] = Plasma concentration of metoclopramide 30 minutes post-dose, Visit 3 (single dose) and Visit 7 (steady state); format: in vivo, human; settings: 10 mg and 14 mg IN, Visit 3 and Visit 7, 30 minutes post-dose
Procedure: Pharmacokinetic (PK) blood samples for the determination of metoclopramide concentration were obtained from all subjects on Visit 3, Day 0 (pre-dose and 30 minutes after dosing [single dose]) and at the Final Visit (Day 28) 30 minutes post-dose (steady state).
Pharmacokinetics: The pharmacokinetics (PK) of the study drug was evaluated in all subjects. FIG. 1 summarizes PK data (blood plasma concentration of metoclopramide in ng/mL) for both Treatment Arms (10 mg and 14 mg, intranasal) on visit 3 and visit 7. Individual data are represented by circles and the arithmetic mean and geometric mean of each group is represented by lines. (In each case, the upper line represents the arithmetic mean and the lower line represents the geometric mean.) In FIG. 2, the PK data are analyzed by gender.

[2] = Safety in the clinical study of metoclopramide nasal spray; format: in vivo, human; settings: 10 mg or 14 mg IN four times daily, four weeks
Procedure: The objectives of this study were to evaluate the safety and the effectiveness of two doses of metoclopramide nasal spray solution, 10 mg and 14 mg, compared to placebo in reducing the symptoms of diabetic gastroparesis and to assess the plasma concentrations of two doses of metoclopramide nasal spray in subjects with diabetic gastroparesis following a single dose and at steady state. The aforementioned dosages for the treatment and control of gastroparesis were administered before meals and/or before bed time. Subjects who met the entry criteria after the Washout Period (Day −7 to Day −1) were randomized using an IVRS, to metoclopramide nasal spray 10 mg, 14 mg, or placebo, in roughly equal numbers (approximately 1:1:1) using a predetermined randomization schedule employing permuted blocks. Randomization was preformed centrally.
The study consisted of up to a 23-day Screening Period, a 7-day Washout Period (Day −7 to Day −1) followed by four weeks of study drug treatment. The total duration of each subject's participation was approximately 8 weeks, 287 subjects were enrolled in the study and were randomized to the following groups: Placebo (n=95), 10 mg intranasal (n=96) and 14 mg intranasal (n=96). Of those subjects enrolled, a total of 259 completed the study (˜90%).

CCN(CC)CCNC(=O)c1cc(Cl)c(N)cc1OC [metoclopramide, -amino-5-chloro-N-(2-(diethylamino)ethyl)-2-methoxybenzamide]
Difference in PK data (blood plasma concentration) between females and males [1]: no statistical difference; also recorded: not statistically significant
Dose-limiting toxicities [2]: no dose-limiting toxicities
Reports of tardive dyskinesia [2]: no reports of tardive dyskinesia

Source: patent US20200405666A9, “TREATMENT OF SYMPTOMS ASSOCIATED WITH FEMALE GASTROPARESIS” (priority 2011, published 2020)
